The record followed here is the supplement of paper PMC10307832.

Assay in all cases: relative viability (nuclei count vs DMSO), 5 days (fraction); higher = more cells survive
Compound in assay [1]: O[C@H]1CC[C@H](Nc2ncc3nc(Nc4c(F)cc(F)cc4F)n([C@H]4CCOC4)c3n2)CC1 [Tanzisertib] + CC(C)C[C@H](NC(=O)[C@H](Cc1ccccc1)NC(=O)c1cnccn1)B(O)O [Bortezomib] (partner 0.002 µM)
The method, boiled down:
(§1)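 One day after seeding in 1536-well plates, lung cancer cell lines were dosed by pin tool. Dosing was either single-drug or a fixed anchor-drug dose plus five library-drug doses (not always all listed) in √10 steps. After 5 days, nuclei were stained in one fix-and-stain step and counted on 4× images, and relative viability is the nuclei count of treated wells over that of vehicle wells, given as the median of duplicate plates.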

Compound in assay [2]: C1CNCCC1C2=CC(=NN2)C3=CC=NC=C3 + CC(=O)Nc1cccc(-n2c(=O)n(C3CC3)c(=O)c3c(Nc4ccc(I)cc4F)n(C)c(=O)c(C)c32)c1 [Trametinib] (partner 0.02 µM)
The method, boiled down: as §1

Compound in assay [3]: O[C@H]1CC[C@H](Nc2ncc3nc(Nc4c(F)cc(F)cc4F)n([C@H]4CCOC4)c3n2)CC1 [Tanzisertib] + Cc1nc(Nc2ncc(C(=O)Nc3c(C)cccc3Cl)s2)cc(N2CCN(CCO)CC2)n1 [Dasatinib] (partner 0.075 µM)
The method, boiled down: as §1

Compound in assay [4]: O[C@H]1CC[C@H](Nc2ncc3nc(Nc4c(F)cc(F)cc4F)n([C@H]4CCOC4)c3n2)CC1 [Tanzisertib] + C[C@@H](Oc1cc(-c2cnn(C3CCNCC3)c2)cnc1N)c1c(Cl)ccc(F)c1Cl [Crizotinib] (partner 1 µM)
The procedure, abridged: as §1

As for UMC-11, the relative viability came out at 0.754 in assay [1] (first compound 0.08 µM); 0.749 in assay [1] (first compound 0.253 µM); 0.825 in assay [1] (first compound 0.8 µM); 0.709 in assay [1] (first compound 2.53 µM); 0.946 in assay [1] (first compound 8 µM); 0.554 in assay [2] (first compound 0.08 µM). For the same cell line, the relative viability came out at 0.776 in assay [2] (first compound 0.8 µM); 0.796 in assay [2] (first compound 2.53 µM); 0.768 in assay [2] (first compound 8 µM); 0.487 in assay [3] (first compound 0.08 µM); 0.456 in assay [3] (first compound 0.253 µM); 0.437 in assay [3] (first compound 0.8 µM). The relative viability in assay [3] (first compound 2.53 µM) came to 0.449; in assay [3] (first compound 8 µM), 0.48; in assay [4] (first compound 0.08 µM), 0.654; in assay [4] (first compound 0.253 µM), 0.703; in assay [4] (first compound 0.8 µM), 0.631; in assay [4] (first compound 2.53 µM), 0.687. In assay [4] (first compound 8 µM), the relative viability came to 0.675.
